Our source for the Activity values is ChEMBL document CHEMBL3045150, “Synthesis and structureactivity relationship studies on novel 8-amino-3-[2-(4-fluorophenoxy)ethyl]-1,3-diazaspiro[4.5]decane-2,4-dione derivatives as anticonvulsant agents” (Med Chem Res, 2013).

Series [1] relates to Mus musculus. As to the kind of experiment: Neurotoxicity in albino Mus musculus (mouse) assessed as motor impairment at 100 mg/kg, po measured at 4 hr by rotarod test. The format is toxicity, organism-based. To be noted: in vivo. Also noted: dose 100 mg/kg, route oral. On the technique in general: Falling from the rotarod earlier than controls is read as motor impairment.
Series [2] has as its system Mus musculus. As to the kind of experiment: Neurotoxicity in albino Mus musculus (mouse) assessed as motor impairment at 100 mg/kg, po measured at 2 hr by rotarod test. The format is toxicity, organism-based. On the set-up: dose 100 mg/kg, route oral. As to conditions: in vivo.
For series [3], the system named is Mus musculus. As to the kind of experiment: Anticonvulsant activity in albino Mus musculus (mouse) assessed as protection against maximal electric shock-induced seizures at 100 mg/kg, ip administered 30 min prior to maximal electric shock-challenge measured up to 4 hr relative to control. The format is functional. As to conditions: route intraperitoneal.

As to `Cc1cccc(S(=O)(=O)NC2CCC3(CC2)NC(=O)N(CCOc2ccc(F)cc2)C3=O)c1` (stereo not given), the Activity result in the series with Mus musculus [1] is recorded as “Non-toxic”; in the series with Mus musculus [2], “Non-toxic”; in the series with Mus musculus [3] it was 4.55%.
Consider `O=C(Cc1ccccc1)NC1CCC2(CC1)NC(=O)N(CCOc1ccc(F)cc1)C2=O` (stereo not given), for which the Activity entry in the series with Mus musculus [1] is “Non-toxic”; in the series on Mus musculus [2] it was “Non-toxic”; with Mus musculus [3], 47.21%.
For `CC(C)(C)c1ccc(C(=O)NC2CCC3(CC2)NC(=O)N(CCOc2ccc(F)cc2)C3=O)cc1` (stereo not given), the Activity entry in the series with Mus musculus [1] is “Non-toxic”; with Mus musculus [2], “Non-toxic”; in the series on Mus musculus [3], 48.15%.
As to `Cc1ccc(S(=O)(=O)NC2CCC3(CC2)NC(=O)N(CCOc2ccc(F)cc2)C3=O)cc1` (stereo not given), the Activity entry in the series with Mus musculus [1] is “Non-toxic”; in the series with Mus musculus [2], “Non-toxic”; in the series on Mus musculus [3] it was 1.14%.
Turning to `O=C(NC1CCC2(CC1)NC(=O)N(CCOc1ccc(F)cc1)C2=O)c1cccc(F)c1` (stereo not given), the figures for the Activity result with Mus musculus [1], in the series on Mus musculus [2] and with Mus musculus [3] were “Toxic”, “Toxic” and 58.02%, respectively.
On to `O=C(NC1CCC2(CC1)NC(=O)N(CCOc1ccc(F)cc1)C2=O)OCc1ccccc1Cl` (stereo not given), for which the Activity result is “Non-toxic” in the series on Mus musculus [1], “Non-toxic” in the series with Mus musculus [2] and 48.82% in the series with Mus musculus [3].
For the molecule `O=C(NC1CCC2(CC1)NC(=O)N(CCOc1ccc(F)cc1)C2=O)c1ccc(F)cc1` (stereo not given), the Activity result in the series on Mus musculus [1] is on record as “Toxic”; in the series with Mus musculus [2] it was “Toxic”; in the series with Mus musculus [3] it was 57.94%.
With `Cc1cc(F)ccc1S(=O)(=O)NC1CCC2(CC1)NC(=O)N(CCOc1ccc(F)cc1)C2=O` (stereo not given), the Activity entry in the series with Mus musculus [1] is listed as “Non-toxic”; with Mus musculus [2] it was “Non-toxic”; in the series with Mus musculus [3] it was 3.25%.
On to `O=C(NC1CCC2(CC1)NC(=O)N(CCOc1ccc(F)cc1)C2=O)Oc1ccc(Cl)cc1` (stereo not given), for which the Activity result with Mus musculus [1] is recorded as “Non-toxic”; in the series on Mus musculus [2] it was “Non-toxic”; in the series on Mus musculus [3], 59.29%.
Regarding `O=C(NC1CCC2(CC1)NC(=O)N(CCOc1ccc(F)cc1)C2=O)c1ccccc1Cl` (stereo not given), the Activity result with Mus musculus [1] is given as “Non-toxic”; in the series with Mus musculus [2], “Non-toxic”; in the series on Mus musculus [3] it was 49.41%.
Regarding `O=C(NC1CCC2(CC1)NC(=O)N(CCOc1ccc(F)cc1)C2=O)c1ccccc1` (stereo not given), the Activity entry is “Non-toxic” with Mus musculus [1], “Non-toxic” in the series with Mus musculus [2] and 55.78% in the series with Mus musculus [3].
Consider `O=C1NC2(CCC(NS(=O)(=O)c3cccc(Cl)c3)CC2)C(=O)N1CCOc1ccc(F)cc1` (stereo not given), for which the values for the Activity result in the series on Mus musculus [1], with Mus musculus [2] and with Mus musculus [3] were “Toxic”, “Toxic” and 4.55%, respectively.
With `COc1ccc(S(=O)(=O)NC2CCC3(CC2)NC(=O)N(CCOc2ccc(F)cc2)C3=O)cc1` (stereo not given), the Activity result was “Non-toxic” in the series with Mus musculus [1], “Non-toxic” in the series with Mus musculus [2] and 9.23% in the series on Mus musculus [3].
For `Cc1cc(C)cc(S(=O)(=O)NC2CCC3(CC2)NC(=O)N(CCOc2ccc(F)cc2)C3=O)c1` (stereo not given), the Activity entry in the series on Mus musculus [1] is listed as “Non-toxic”; in the series with Mus musculus [2], “Non-toxic”; in the series on Mus musculus [3] it was 43.12%.
For `O=C(NC1CCC2(CC1)NC(=O)N(CCOc1ccc(F)cc1)C2=O)Oc1ccccc1` (stereo not given), the Activity result in the series on Mus musculus [1] is reported as “Non-toxic”; in the series with Mus musculus [2] it was “Non-toxic”; in the series on Mus musculus [3], 56.89%.
On to `Cc1ccc(CS(=O)(=O)NC2CCC3(CC2)NC(=O)N(CCOc2ccc(F)cc2)C3=O)cc1` (stereo not given), for which the Activity entry in the series on Mus musculus [1] is listed as “Toxic”; in the series on Mus musculus [2], “Toxic”; in the series with Mus musculus [3], 12.6%.
On to `O=C1NC2(CCC(NS(=O)(=O)c3cccc(F)c3)CC2)C(=O)N1CCOc1ccc(F)cc1` (stereo not given), for which the Activity result is reported as “Non-toxic” in the series on Mus musculus [1], “Non-toxic” in the series on Mus musculus [2] and 6.5% with Mus musculus [3].
In the case of `N#Cc1ccccc1S(=O)(=O)NC1CCC2(CC1)NC(=O)N(CCOc1ccc(F)cc1)C2=O` (stereo not given), the Activity result with Mus musculus [1] is recorded as “Non-toxic”; in the series on Mus musculus [2], “Non-toxic”; in the series on Mus musculus [3] it was 4.51%.
`O=C1NC2(CCC(NS(=O)(=O)c3ccccc3F)CC2)C(=O)N1CCOc1ccc(F)cc1` (stereo not given): the Activity entry was “Non-toxic” in the series with Mus musculus [1], “Non-toxic” with Mus musculus [2] and 4.94% with Mus musculus [3].
Take `Cc1cccc(C(=O)NC2CCC3(CC2)NC(=O)N(CCOc2ccc(F)cc2)C3=O)c1` (stereo not given): the figures for the Activity entry with Mus musculus [1], with Mus musculus [2] and in the series on Mus musculus [3] were “Non-toxic”, “Non-toxic” and 78.62%, respectively.
For the molecule `Cc1ccc(S(=O)(=O)NC2CCC3(CC2)NC(=O)N(CCOc2ccc(F)cc2)C3=O)cc1C` (stereo not given), the Activity result in the series with Mus musculus [1] is given as “Non-toxic”; with Mus musculus [2], “Non-toxic”; with Mus musculus [3], 42.61%.
`O=C(NC1CCC2(CC1)NC(=O)N(CCOc1ccc(F)cc1)C2=O)c1ccccc1F` (stereo not given): the Activity result is recorded as “Toxic” in the series on Mus musculus [1], “Toxic” in the series on Mus musculus [2] and 48.12% with Mus musculus [3].
As for `CCc1ccc(S(=O)(=O)NC2CCC3(CC2)NC(=O)N(CCOc2ccc(F)cc2)C3=O)cc1` (stereo not given), the Activity result in the series on Mus musculus [1] is listed as “Non-toxic”; in the series on Mus musculus [2], “Non-toxic”; in the series on Mus musculus [3], 1.23%.
Turning to `Cc1ccccc1S(=O)(=O)NC1CCC2(CC1)NC(=O)N(CCOc1ccc(F)cc1)C2=O` (stereo not given), the Activity entry was “Non-toxic” with Mus musculus [1], “Non-toxic” in the series on Mus musculus [2] and 13% in the series on Mus musculus [3].
In the case of `Cc1ccc(C)c(S(=O)(=O)NC2CCC3(CC2)NC(=O)N(CCOc2ccc(F)cc2)C3=O)c1` (stereo not given), the Activity result is “Non-toxic” in the series on Mus musculus [1], “Non-toxic” with Mus musculus [2] and 43.95% in the series on Mus musculus [3].
For the molecule `Cc1ccc(C(=O)NC2CCC3(CC2)NC(=O)N(CCOc2ccc(F)cc2)C3=O)cc1` (stereo not given), the Activity entry with Mus musculus [1] is “Non-toxic”; with Mus musculus [2], “Non-toxic”; in the series on Mus musculus [3] it was 79.58%.
On to `O=C(NC1CCC2(CC1)NC(=O)N(CCOc1ccc(F)cc1)C2=O)c1ccc(Cl)cc1` (stereo not given), for which the figures for the Activity result with Mus musculus [1], in the series on Mus musculus [2] and in the series on Mus musculus [3] were “Toxic”, “Toxic” and 49.83%, respectively.
Take `O=C1NC2(CCC(NS(=O)(=O)c3cccc(Br)c3)CC2)C(=O)N1CCOc1ccc(F)cc1` (stereo not given): the Activity result was “Non-toxic” in the series with Mus musculus [1], “Non-toxic” in the series on Mus musculus [2] and 7.41% with Mus musculus [3].
Take `O=C(NC1CCC2(CC1)NC(=O)N(CCOc1ccc(F)cc1)C2=O)c1cccc(Cl)c1` (stereo not given): the Activity result with Mus musculus [1] was “Toxic”; in the series on Mus musculus [2], “Toxic”; in the series on Mus musculus [3], 58.61%.
`O=C(NC1CCC2(CC1)NC(=O)N(CCOc1ccc(F)cc1)C2=O)c1ccccc1C(F)(F)F` (stereo not given): the Activity result was “Non-toxic” in the series with Mus musculus [1], “Non-toxic” in the series on Mus musculus [2] and 79.32% in the series with Mus musculus [3].
